Experimental data published in article PMC12473014, “Granzyme B PET Imaging Enables Early Assessment of Immunotherapy Response in a Humanized Melanoma Mouse Model” (Pharmaceuticals, 2025).
Where two headings read alike, the source gives them in different places.

Assays:
[1] = molecular target: T1, active human GZB (Homo sapiens, UniProt P10144); assay type: in vivo; conditions: for mean TBR: mean ± SEM
Protocol: (§1) Human melanoma G361 (ATCC®) cells were cultured in McCoy’s Medium (Thermo-Fisher, Waltham, MA, USA) supplemented with 10% fetal bovine serum (Thermo-Fisher) and 1% penicillin–streptomycin (Thermo-Fisher) at 37 °C with 5% CO2. The mice were then subcutaneously (s.c.) implanted with 2 × 10^6 G361 cells suspended in Matrigel and 100 µL of phosphate-buffered saline (Sigma-Aldrich, St. […] To estimate the tumor volume, both the longest and shortest perpendicular diameters were measured. These measurements were then combined using a standard method commonly employed in preclinical studies to approximate the tumor volume, providing a reliable estimate of the three-dimensional tumor size. Four days after tumor implantation, the tumors measured 336 ± 38 mm^3. The mice were then randomly assigned to receive three doses at three-day intervals of either 200 µg/100 µg of an anti-PD1/CTLA4 combination therapy (combination group, n = 15), 200 µg of anti-PD1 as a monotherapy (monotherapy group, n = 15), or a vehicle solution (controls, n = 12) via an intraperitoneal (i.p.) injection. A subset of mice (combination: n = 8, monotherapy: n = 9, controls: n = 6) underwent PET/CT imaging before treatment (baseline), as well as 4 days (timepoint 2), 1 week (timepoint 3), and 2 weeks (timepoint 4) after the treatment began (Figure 7). ^68Gallium was obtained by eluting a ^68Ga/^68Ge generator (Eckert and Ziegler, Berlin, Germany) with 0.1 molar HCl. A total of 2 mL of eluted ^68gallium was mixed with 100 µL of NOTA-CYT-200, stored in a stock solution of 1 mg/mL of metal-free water (OmniTrace Ultra, Millipore, Burlington, MA, USA) and two molar HEPES buffer to adjust the pH to 3.5–4.0. The reaction was incubated at 95 °C for 10 min. The mixture was then adjusted to a pH of 7.0 using sodium hydroxide (NaOH) before being administered intravenously via the tail vein. A total of 3.96 MBq ± 0.81 of ^68Ga-NOTA-CYT-200 was injected 60 ± 5 min prior to PET/CT acquisition. The PET/CT images were acquired in static mode using a small animal Argus PET/CT scanner (Sedecal, Madrid, Spain) in two bed positions over 20 min. The PET images were reconstructed using (2 iterations and 16 subsets) 2D-OSEM and corrected for randoms and scatter. Post-acquisition, the PET/CT images were analyzed by two blinded investigators using the VivoQuant™ software, version 4.0 (InVicro). Standard uptake values (SUVs) for the tumor, liver, and colon were normalized to the blood pool activity measured by drawing a region of interest around the left ventricle of the heart, yielding target-to-background ratios (TBR for tumor, LBR for liver, and CBR for colon). This normalization accounts for the nonspecific background signal and enables a comparison of the uptake across the groups and imaging timepoints. Prism (version 9.2; GraphPad) was used to perform quantitative data analyses. The data are presented as the mean ± SEM. The means of the two groups were compared using unpaired Student’s t-tests when appropriate.

[2] = molecular target: T1, active human GZB; assay: PET/CT liver uptake (LBR) in humanized NSG mice with G361 melanoma; assay type: in vivo; conditions: for liver-to-blood ratio (LBR): n = 8, mean ± SEM
Protocol: as §1

[3] = molecular target: T1, active human GZB; assay: PET/CT intestinal/colon uptake (CBR) in humanized NSG mice with G361 melanoma; assay type: in vivo; conditions: mean ± SEM
Protocol: as §1

[4] = system: active human GZB protein; assay: PET uptake in subcutaneous Matrigel implants with or without active GZB (in vivo specificity); conditions: n = 8, SUV normalized to blood pool, 1 h after i.v. 4.39 MBq, mean ± SEM
Protocol: (§2) NOTA-CYT-200 was synthesized (CytoSite Biopharma, Sudbury, MA, USA) with a high chemical purity (>95%) and characterized using mass spectrometry. We performed a fluorometric human GZB activity assay (ab157403) to determine the inhibitor constant (Ki) of NOTA-CYT-200 for active human GZB enzyme activity in vitro. NOTA-CYT-200 was serially diluted with GZB assay buffer, starting from 5000 to 0.00002048 nanomolar. Each dilution was combined with 0.1 µg/µL of active GZB protein (ab285779) and the provided fluorophore. Each well contained a total volume of 50 µL, and all the samples were tested in duplicate using a microplate reader in kinetic mode (BioTek Cytation5, Winooski, VT, USA) after 90 min of incubation at 27 °C. The in vivo specificity of NOTA-CYT-200 labeled with 68gallium (^68Ga-NOTA-CYT-200) for the active human GZB protein was evaluated in non-tumor-bearing naive NSG mice (n = 8) following a subcutaneous injection of 80 µL of Matrigel alone (Corning™ Matrigel™ Membrane Matrix) or 65 µL of Matrigel containing 15 µL of active human GZB protein (0.05 µg/µL, totaling 0.75 µg GZB) into each animal’s shoulder. […] The uptake of ^68Ga-NOTA-CYT-200, measured as standard uptake values (SUVs) within the implanted regions, was assessed using the VivoQuant™ software, version 4.0 (InVicro, Needham, MA, USA). […]

[5] = in vivo; parameters: species or system NSG mice; conditions: mouse; for tissue uptake at 1 h: NSG, iv, total radioactivity
Protocol: The ^68Ga-NOTA-CYT-200 biodistribution was evaluated for each treatment group four days after the initial dose. Major organs, such as the tumor, heart, lungs, liver, spleen, stomach, pancreas, intestines, kidneys, muscles, bones, skin, and brain from each mouse, were excised exactly one hour after the i.v. administration of 52.83 µCi ± 0.87 (controls, n = 3), 41.83 µCi ± 5.93 (mono, n = 4), or 34.65 µCi ± 3.82 (combination, n = 4) ^68Ga-NOTA-CYT-200. Each organ was weighed individually before measuring the activity with an automatic gamma counter (PerkinElmer Wallac Wizard 2480, Waltham, MA, USA).

[6] = molecular target: T1, active human GZB; assay: Fluorometric human GZB enzymatic inhibition assay (ab157403); assay type: biochemical; parameters: Each dilution was combined with 0.1 µg/µL of active GZB protein (ab285779); purchased ab285779; conditions: 0.1 µg/µL active GZB, 5000 to 0.00002048 nM, 50 µL, duplicate, kinetic mode after 90 min at 27 °C, CI: 2.95–5.98, read-out: inhibition constant (Ki)
Protocol: as §2

T1 sequence (P10144 21-247): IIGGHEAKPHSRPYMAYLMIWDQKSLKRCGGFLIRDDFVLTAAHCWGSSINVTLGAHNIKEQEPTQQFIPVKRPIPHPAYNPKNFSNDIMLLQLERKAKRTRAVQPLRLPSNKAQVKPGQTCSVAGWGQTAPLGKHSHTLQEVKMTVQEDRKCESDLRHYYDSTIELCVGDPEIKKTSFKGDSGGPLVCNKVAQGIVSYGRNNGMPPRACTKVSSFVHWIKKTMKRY

CC[C@H](C)[C@H](NC(=O)CNC(=O)CNC(=O)[C@H](CCC(=O)O)NC(=O)Cc1ccc(CC2CN(CC(=O)O)CCN(CC(=O)O)CCN2CC(=O)O)cc1)C(=O)N[C@H]1CCc2cccc3c2N(C1=O)[C@H](C(=O)N[C@H]1CC(=O)OC1O)C3 (stereo partly shown) [^68Ga-NOTA-CYT-200, metal not drawn]
mean TBR ([1]; baseline, combination (anti-PD1/CTLA4), n = 8): 1.47 ± 0.2 | mean TBR ([1]; baseline, monotherapy (anti-PD1), n = 9): 1.25 ± 0.17 | off-target binding in tumors of the control group ([1]; control group (vehicle)): some off-target binding | highest TBR on day 4 or day 7 ([1]; controls, n = 6): 1.75 ± 0.39 | TBR, responder analysis ([1]; day 4, treatment non-responders (TNRs), n = 6, p = 0.02 vs controls): 2.7 ± 0.9 | TBR, responder analysis ([1]; day 4, treatment responders (TRs), n = 3, p < 0.0001 vs controls): 4.0 ± 1.2 | mean TBR ([1]; day 4 after treatment start, combination (anti-PD1/CTLA4), n = 8, p < 0.0001 vs controls, p = 0.027 vs monotherapy): 3.88 ± 0.47 | mean TBR ([1]; day 4 after treatment start, controls (vehicle), n = 6): 1.15 ± 0.13 | mean TBR ([1]; day 4 after treatment start, monotherapy (anti-PD1), n = 9, p = 0.0005 vs controls): 2.84 ± 0.3 | mean TBR ([1]; day 7, combination (anti-PD1/CTLA4), n = 8, p = 0.0052 vs monotherapy, p = 0.0003 vs controls): 3.5 ± 0.48 | mean TBR ([1]; day 7, controls (vehicle), n = 6): 1.69 ± 0.2 | mean TBR ([1]; day 7, monotherapy (anti-PD1), n = 9, p = 0.59 vs controls): 2.14 ± 0.11 | mean TBR ([1]; day 14, combination (anti-PD1/CTLA4), n = 8, p = 0.01 vs monotherapy, p = 0.05 vs controls): 3.05 ± 0.43 | mean TBR ([1]; day 14, controls (vehicle), n = 6): 1.97 ± 0.28 | mean TBR ([1]; day 14, monotherapy (anti-PD1), n = 9, p = 0.88 vs controls): 1.75 ± 0.15 | inhibition of the inflammatory response to immunotherapy by tracer injection ([1]; in vivo): did not observe any obvious inhibition of the inflammatory response to immunotherapy | highest TBR on day 4 or day 7 ([1]; treatment non-responders (TNRs), n = 6, p = 0.175 vs controls): 2.73 ± 0.88 | highest TBR on day 4 or day 7 ([1]; treatment responders (TRs), n = 3, p = 0.0002 vs controls, p = 0.0109 vs TNRs): 4.28 ± 1.20 | liver-to-blood ratio (LBR) ([2]; baseline, combination): 2.98 ± 0.34 | liver-to-blood ratio (LBR) ([2]; day 4, combination, p < 0.0001 vs baseline): 6.93 ± 1.04 | LBR change versus baseline ([2]; day 4, monotherapy, n = 9, p = 0.023): significant LBR increase on day 4 versus baseline | liver-to-blood ratio (LBR) ([2]; day 7, combination, p < 0.0001 vs baseline): 7.16 ± 1.03 | liver-to-blood ratio (LBR) ([2]; day 14, combination, p = 0.91 vs baseline, p = 0.0004 and 0.0001 vs days 4 and 7): 3.52 ± 0.27 | LBR change versus baseline ([2]; days 7 and 14, monotherapy, n = 9, p = 0.93 and p = 0.71): remained comparable to baseline | LBR change versus baseline ([2]; post-treatment timepoints, controls, n = 6, p 0.43 to 0.71): none of the post-treatment LBR values were significantly different from baseline | intestinal/colon-to-blood ratio (CBR) ([3]; baseline, combination, n = 8): 3.5 ± 0.62 | intestinal/colon-to-blood ratio (CBR) ([3]; baseline, controls, n = 6): 2.11 ± 0.56 | intestinal/colon-to-blood ratio (CBR) ([3]; baseline, monotherapy, n = 9): 2.68 ± 0.43 | intestinal/colon-to-blood ratio (CBR) ([3]; day 4, combination, n = 8, p = 0.029 vs baseline): 6.81 ± 1.21 | intestinal/colon-to-blood ratio (CBR) ([3]; day 4, monotherapy, n = 9, p = 0.07 vs baseline): 5.41 ± 0.98 | intestinal/colon-to-blood ratio (CBR) ([3]; day 7, combination, n = 8, p = 0.96 vs baseline): 6.21 ± 1.23 | intestinal/colon-to-blood ratio (CBR) ([3]; day 7, monotherapy, n = 9, p = 0.8 vs baseline): 3.75 ± 0.57 | intestinal/colon-to-blood ratio (CBR) ([3]; day 14, combination, n = 8, p = 0.99 vs baseline): 4.09 ± 0.97 | intestinal/colon-to-blood ratio (CBR) ([3]; day 14, monotherapy, n = 9, p = 0.99 vs baseline): 2.25 ± 0.36 | radiotracer uptake in implant ([4]; Matrigel containing active GZB protein (0.75 µg), p = 0.0045 vs Matrigel without protein): 6.18 ± 2.92 | radiotracer uptake in implant ([4]; Matrigel without the protein): 2.48 ± 1.01 | tissue uptake at 1 h ([5]; 41.83 uCi, kidney uptake): 1.47 ± 0.37 %ID/g | tissue uptake at 1 h ([5]; 41.83 uCi, tumor uptake): 0.25 ± 0.06 %ID/g | tissue uptake at 1 h ([5]; 52.83 uCi, intestinal uptake): 0.17 ± 0.13 %ID/g | tissue uptake at 1 h ([5]; 52.83 uCi, kidney uptake): 1.32 ± 0.84 %ID/g | tissue uptake at 1 h ([5]; 52.83 uCi, tumor uptake): 0.12 ± 0.03 %ID/g | main organ of tracer elimination [5]: kidney as the main organ responsible for tracer elimination

CC[C@H](C)[C@H](NC(=O)CNC(=O)CNC(=O)[C@H](CCC(=O)O)NC(=O)Cc1ccc(CC2CN(CC(=O)O)CCN(CC(=O)O)CCN2CC(=O)O)cc1)C(=O)N[C@H]1CCc2cccc3c2N(C1=O)[C@H](C(=O)N[C@H]1CC(=O)OC1O)C3 (stereo partly shown) [NOTA-CYT-200]
Ki [6]: 4.2 nM
